From ChEMBL document CHEMBL6083259, “Discovery of quinazoline-benzothiazole derivatives as novel potent protease-activated receptor 4 antagonists with improved pharmacokinetics and low bleeding liability” (Eur J Med Chem, 2024)
The source made the active and inactive calls. The rule behind the calls is not given here.

What was measured:
Plasma [1] = test: Inhibition of collagen-induced platelet aggregation in human platelet rich plasma at 10 uM preincubated for 5 mins followed by collagen addition and measured after 5 mins by aggregometer; type: functional, cell-free
[2] = AUC (0 to last) in male Sprague-Dawley rat at 0.5 mg/kg, iv measured after 24 hrs by LC-MS/MS analysis; type: ADME, organism-based; conditions: in vivo
Plasma [3] = test: Inhibition of thrombin-induced platelet aggregation in human platelet rich plasma at 10 uM preincubated for 5 mins followed by thrombin addition and measured after 5 mins by aggregometer; type: functional, cell-free; conditions: time 10.0 min
[4] = Clearance in male Sprague-Dawley rat at 0.5 mg/kg, iv measured after 24 hrs by LC-MS/MS analysis; type: ADME, organism-based; conditions: in vivo
[5] = Cmax in male Sprague-Dawley rat at 2 mg/kg, po measured after 24 hrs by LC-MS/MS analysis; type: ADME, organism-based; conditions: in vivo
[6] = Protein binding in human plasma at 10 uM incubated for 6 hrs by LC-MS/MS analysis; type: ADME, cell-free; conditions: read-out: PPB (converted)
[7] = Protein binding in rat plasma at 10 uM incubated for 6 hrs by LC-MS/MS analysis; type: ADME, cell-free; conditions: read-out: PPB (converted)
[8] = Half-life in male Sprague-Dawley rat at 2 mg/kg, po measured after 24 hrs by LC-MS/MS analysis; type: ADME, organism-based; conditions: in vivo
[9] = Tmax in male Sprague-Dawley rat at 2 mg/kg, po measured after 24 hrs by LC-MS/MS analysis; type: ADME, organism-based; conditions: in vivo
[10] = Metabolic stability in rat liver microsomes assessed as half-life at 1 uM measured upto 120 mins in presence of NADPH by LC-MS/MS analysis; type: ADME, Microsome
[11] = biological target: T1, Proteinase-activated receptor 4 (Homo sapiens, UniProt Q96RI0); test: Antagonist activity at human PAR4 expressed in HEK293/Galpha15 cells assessed as inhibition of AYPGKF-NH2-induced calcium mobilization incubated for 30 mins by FLIPR assay; type: functional, cell-based
T1 sequence (Q96RI0 whole entry): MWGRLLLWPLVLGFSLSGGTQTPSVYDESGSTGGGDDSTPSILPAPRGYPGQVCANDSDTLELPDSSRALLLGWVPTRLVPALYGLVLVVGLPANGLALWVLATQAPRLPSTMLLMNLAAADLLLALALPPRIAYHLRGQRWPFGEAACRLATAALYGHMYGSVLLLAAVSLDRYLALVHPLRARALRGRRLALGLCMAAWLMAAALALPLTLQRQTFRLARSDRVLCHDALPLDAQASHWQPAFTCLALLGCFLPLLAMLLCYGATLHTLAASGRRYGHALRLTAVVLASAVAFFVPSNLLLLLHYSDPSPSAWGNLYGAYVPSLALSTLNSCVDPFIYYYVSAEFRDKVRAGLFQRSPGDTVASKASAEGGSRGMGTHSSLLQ

Plasma [12] = test: Inhibition of ADP-induced platelet aggregation in human platelet rich plasma at 10 uM preincubated for 5 mins followed by ADP addition and measured after 5 mins by aggregometer; type: functional, cell-free
[13] = Oral bioavailability in male Sprague-Dawley rat at 2 mg/kg measured after 24 hrs by LC-MS/MS analysis; type: ADME, organism-based; conditions: in vivo
[14] = AUC (0 to last) in male Sprague-Dawley rat at 2 mg/kg, po measured after 24 hrs by LC-MS/MS analysis; type: ADME, organism-based; conditions: in vivo
[15] = Clearance in male Sprague-Dawley rat at 2 mg/kg, po measured after 24 hrs by LC-MS/MS analysis; type: ADME, organism-based; conditions: in vivo
Plasma [16] = test: Inhibition of SFFLLRN-NH2 peptide-induced platelet aggregation in human platelet rich plasma at 10 uM preincubated for 5 mins followed by peptide addition and measured after 5 mins by aggregometer; type: functional, cell-free
[17] = Half-life in male Sprague-Dawley rat at 0.5 mg/kg, iv measured after 24 hrs by LC-MS/MS analysis; type: ADME, organism-based; conditions: in vivo
Plasma [18] = test: Inhibition of U46619-induced platelet aggregation in human platelet rich plasma at 10 uM preincubated for 5 mins followed by U46619 addition and measured after 5 mins by aggregometer; type: functional, cell-free
[19] = biological target: T2, Proteinase-activated receptor 4 (Homo sapiens) (UniProt Q96RI0); test: Antagonist activity at PAR4 in human platelet rich plasma assessed as inhibition of gamma-PAR4 agonist peptide (AYPGKF-NH2)-induced platelet aggregation at 200 nM preincubated for 5 mins followed by peptide addition and measured after 5 mins by aggregometer relative to control; type: cell-based; conditions: filed as antagonist, time 10.0 min
T2 sequence (whole entry): T1 sequence (Q96RI0 whole entry)

[20] = Cmax in male Sprague-Dawley rat at 0.5 mg/kg, iv measured after 24 hrs by LC-MS/MS analysis; type: ADME, organism-based; conditions: in vivo
[21] = Antagonist activity at […] expressed in HEK293/Galpha15 cells assessed as inhibition of 2-furoyl-LIGRLO-NH2-induced calcium mobilization incubated for 30 mins by FLIPR assay; type: cell-based; conditions: HEK293/Galpha15, 0.5 h
[22] = Cytotoxicity against HEK293 cells assessed as reduction in cell viability incubated for 48 hrs by MTT assay; type: toxicity, cell-based; conditions: human
Plasma [23] = test: Inhibition of […] peptide-induced platelet aggregation in human platelet rich plasma at 10 uM preincubated for 5 mins followed by peptide addition and measured after 5 mins by aggregometer; type: functional, cell-free; conditions: time 10.0 min
[24] = Metabolic stability in human liver microsomes assessed as half-life at 1 uM measured upto 120 mins in presence of NADPH by LC-MS/MS analysis; type: ADME, Microsome
[25] = biological target: T3, Proteinase-activated receptor 1 (Homo sapiens, UniProt P25116); test: Antagonist activity at human PAR1 expressed in HEK293/Galpha15 cells assessed as inhibition of SFFLRR-NH2-induced calcium mobilization incubated for 30 mins by FLIPR assay; type: functional, cell-based
T3 sequence (P25116 whole entry): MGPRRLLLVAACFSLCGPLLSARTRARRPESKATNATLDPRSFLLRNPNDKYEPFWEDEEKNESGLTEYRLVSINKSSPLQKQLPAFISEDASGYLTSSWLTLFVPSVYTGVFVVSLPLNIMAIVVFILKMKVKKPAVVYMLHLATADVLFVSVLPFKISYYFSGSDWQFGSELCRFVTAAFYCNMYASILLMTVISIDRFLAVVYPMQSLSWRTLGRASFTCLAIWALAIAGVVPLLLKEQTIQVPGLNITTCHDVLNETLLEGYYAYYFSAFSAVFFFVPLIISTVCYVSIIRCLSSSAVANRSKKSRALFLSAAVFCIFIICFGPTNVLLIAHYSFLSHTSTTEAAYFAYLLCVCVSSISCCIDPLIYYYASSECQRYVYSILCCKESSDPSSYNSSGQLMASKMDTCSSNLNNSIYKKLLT

[26] = Tmax in male Sprague-Dawley rat at 0.5 mg/kg, iv measured after 24 hrs by LC-MS/MS analysis; type: ADME, organism-based; conditions: in vivo
[27] = Toxicity in male C57BL/6 mouse assessed as prolongation of bleeding time at 10 mg/kg, po measured after 1.5 hrs by tail bleeding assay; type: organism-based; conditions: in vivo
[28] = Half-life in iv dosed male Sprague-Dawley rat measured after 24 hrs by LC-MS/MS analysis; type: ADME, organism-based; conditions: in vivo
[29] = Cmax in po dosed male Sprague-Dawley rat measured after 24 hrs by LC-MS/MS analysis; type: ADME, organism-based; conditions: in vivo
[30] = Tmax in po dosed male Sprague-Dawley rat measured after 24 hrs by LC-MS/MS analysis; type: ADME, organism-based; conditions: in vivo
[31] = Clearance in iv dosed male Sprague-Dawley rat measured after 24 hrs by LC-MS/MS analysis; type: ADME, organism-based; conditions: in vivo
[32] = AUC (0 to last) in iv dosed male Sprague-Dawley rat measured after 24 hrs by LC-MS/MS analysis; type: ADME, organism-based; conditions: in vivo
[33] = Oral bioavailability in male Sprague-Dawley rat measured after 24 hrs by LC-MS/MS analysis; type: ADME, organism-based; conditions: in vivo
[34] = Half-life in po dosed male Sprague-Dawley rat measured after 24 hrs by LC-MS/MS analysis; type: ADME, organism-based; conditions: in vivo
[35] = AUC (0 to last) in po dosed male Sprague-Dawley rat measured after 24 hrs by LC-MS/MS analysis; type: ADME, organism-based; conditions: in vivo
[36] = Cmax in iv dosed male Sprague-Dawley rat measured after 24 hrs by LC-MS/MS analysis; type: ADME, organism-based; conditions: in vivo
[37] = Antagonist activity at PAR4 in mouse washed platelets assessed as inhibition of gamma-PAR4 agonist peptide (AYPGKF-NH2)-induced platelet aggregation preincubated for 5 mins followed by peptide addition and measured after 5 mins by aggregometer
[38] = Tmax in iv dosed male Sprague-Dawley rat measured after 24 hrs by LC-MS/MS analysis; type: ADME, organism-based; conditions: in vivo

Compound | IC50 (Plasma [1]) | AUC(0-t) at 24 h [2] | inhibition (Plasma [3]) | clearance [4] | Cmax [5] | fraction unbound at 6 h, 10 µM [6] | fraction unbound at 6 h, 10 µM [7] | half-life [8] | Tmax [9] | half-life at 1 µM [10] | IC50 [11] | IC50 (Plasma [12]) | bioavailability [13] | AUC(0-t) at 24 h [14] | CL/F [15] | inhibition [19] | IC50 [21] | IC50 at 48 h [22] | half-life at 1 µM [24] | IC50 [25] | also measured
COCc1ncc2c(-c3nc4cc(F)c(OCCOC(=O)Nc5cc(F)cc(C#N)c5)cc4s3)cc(C)cc2n1 | > 10 µM | 950 ng·h/mL | Active | 9.5 mL/min/kg | 146 ng/mL | 0.001 | 0.0011 | 1.78 h | 1 h | 2.12 h | 0.0056 µM | > 10 µM | 13.2% | 488 ng·h/mL | 65.3 mL/min/kg | 90.3% | > 1 µM | > 20 µM | 0.747 h | > 3.16 µM | IC50 (Plasma [16]): > 10 µM; half-life [17]: 2.2 h; IC50 (Plasma [18]): > 10 µM; Cmax [20]: 944 ng/mL; inhibition (Plasma [23]): Active; Tmax [26]: 4.8 min
COc1ncc2c(-c3nc4cc(F)c5c(c4s3)C[C@H](COC(=O)Nc3cc(F)cc(C#N)c3)O5)cc(C)cc2n1 | > 10 µM | 808 ng·h/mL | Active | 9.8 mL/min/kg | 170 ng/mL | 0.0004 | 0.0001 | 7.05 h | 1 h | 1.73 h | 0.00096 µM | > 10 µM | 27.3% | 865 ng·h/mL | 37.7 mL/min/kg | 94.7% | > 1 µM | > 20 µM | 4.71 h | > 3.16 µM | IC50 (Plasma [16]): > 10 µM; half-life [17]: 6.89 h; IC50 (Plasma [18]): > 10 µM; Activity [27]: Non-toxic; Cmax [20]: 519 ng/mL; inhibition (Plasma [23]): Active; Tmax [26]: 4.8 min
COc1cc(Cl)c2nc(-c3cc(C)cc4c(=O)n(C)cnc34)sc2c1 |  |  |  |  |  |  |  |  |  | 0.532 h |  |  |  |  |  | 94.5% | > 1 µM | > 20 µM | 0.71 h | > 3.16 µM | half-life [28]: 1.4 h; Cmax [29]: 6.4 ng/mL; Tmax [30]: 2.83 h; clearance [31]: 57.7 mL/min/kg; AUC(0-t) at 24 h [32]: 288 ng·h/mL; bioavailability [33]: 3.71%; Activity [27]: Non-toxic; half-life [34]: 2.16 h; AUC(0-t) at 24 h [35]: 32 ng·h/mL; Cmax [36]: 571 ng/mL; IC50 [37]: 0.084 µM; Tmax [38]: 4.8 min
COc1ncc2c(-c3nc4cc(F)c5c(c4s3)C[C@H](COC(=O)Nc3cccc(C#N)c3)O5)cc(C)cc2n1 | > 10 µM | 636 ng·h/mL | Active | 12.8 mL/min/kg | 214 ng/mL | 0.0005 | 0.0002 | 5.16 h | 1.67 h | 1.49 h | 0.00172 µM | > 10 µM | 50.5% | 1220 ng·h/mL | 25.4 mL/min/kg | 91.2% | > 1 µM | > 20 µM | 4.16 h | > 3.16 µM | IC50 (Plasma [16]): > 10 µM; half-life [17]: 5.13 h; IC50 (Plasma [18]): > 10 µM; Activity [27]: Non-toxic; Cmax [20]: 394 ng/mL; inhibition (Plasma [23]): Active; Tmax [26]: 4.8 min
